Here are results for 17 compounds from ChEMBL document CHEMBL1201862, “PubChem BioAssay data set” (2004).

Assay [1] has as its target T1, Sentrin-specific protease 7 (Homo sapiens, UniProt Q9BQF6).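 Also: Luminescence-based dose-response confirmation of ultra-high-throughput screening hits, measuring inhibition of SENP7.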
T1 sequence (Q9BQF6 whole entry): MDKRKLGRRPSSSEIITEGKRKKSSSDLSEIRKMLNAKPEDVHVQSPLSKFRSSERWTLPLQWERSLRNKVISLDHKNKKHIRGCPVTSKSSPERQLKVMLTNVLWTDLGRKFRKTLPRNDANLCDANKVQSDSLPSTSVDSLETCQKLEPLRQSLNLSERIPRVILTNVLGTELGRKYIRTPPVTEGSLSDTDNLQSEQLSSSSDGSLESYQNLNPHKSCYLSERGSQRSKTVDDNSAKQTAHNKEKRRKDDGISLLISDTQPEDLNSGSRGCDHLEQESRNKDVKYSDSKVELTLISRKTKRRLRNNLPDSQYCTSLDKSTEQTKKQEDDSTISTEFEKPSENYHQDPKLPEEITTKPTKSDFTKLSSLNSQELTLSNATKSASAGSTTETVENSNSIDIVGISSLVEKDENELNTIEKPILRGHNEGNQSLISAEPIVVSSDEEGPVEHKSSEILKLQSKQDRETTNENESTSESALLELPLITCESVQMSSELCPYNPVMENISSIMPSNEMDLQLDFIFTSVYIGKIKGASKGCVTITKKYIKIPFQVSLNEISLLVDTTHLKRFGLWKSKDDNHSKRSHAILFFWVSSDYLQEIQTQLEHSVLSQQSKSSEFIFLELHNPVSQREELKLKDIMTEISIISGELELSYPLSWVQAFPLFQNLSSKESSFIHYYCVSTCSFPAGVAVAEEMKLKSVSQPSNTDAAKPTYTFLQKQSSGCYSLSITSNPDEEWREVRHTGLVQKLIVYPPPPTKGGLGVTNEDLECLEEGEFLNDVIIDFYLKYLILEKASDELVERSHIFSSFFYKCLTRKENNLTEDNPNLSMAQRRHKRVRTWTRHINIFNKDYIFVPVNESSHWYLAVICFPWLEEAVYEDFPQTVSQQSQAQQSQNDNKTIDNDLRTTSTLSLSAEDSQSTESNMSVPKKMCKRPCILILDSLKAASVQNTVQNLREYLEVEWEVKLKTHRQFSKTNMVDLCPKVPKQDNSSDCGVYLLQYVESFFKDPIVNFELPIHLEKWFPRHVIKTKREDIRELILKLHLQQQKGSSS
The assay is classed as functional.

Assay [2] has as its target T2, Caspase-3 (Homo sapiens, UniProt P42574).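 Also: Dose-response selectivity test against caspase-3 for candidate inhibitors of sentrin-specific proteases (SENPs).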
T2 sequence (P42574 whole entry): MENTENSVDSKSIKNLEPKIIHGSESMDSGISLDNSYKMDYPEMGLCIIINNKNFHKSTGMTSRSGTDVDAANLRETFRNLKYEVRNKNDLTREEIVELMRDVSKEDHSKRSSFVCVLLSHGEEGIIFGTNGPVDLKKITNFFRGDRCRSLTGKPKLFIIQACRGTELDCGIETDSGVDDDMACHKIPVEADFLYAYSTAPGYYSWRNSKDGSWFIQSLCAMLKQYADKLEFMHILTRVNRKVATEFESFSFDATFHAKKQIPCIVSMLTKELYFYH
Type of assay: functional.

Assay [3] has as its target T3, Sentrin-specific protease 6 (Homo sapiens, UniProt Q9GZR1).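 Also: Luminescence-based dose-response confirmatory assay of SENP6 inhibition, following up an ultra-high-throughput screen.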
T3 sequence (Q9GZR1 whole entry): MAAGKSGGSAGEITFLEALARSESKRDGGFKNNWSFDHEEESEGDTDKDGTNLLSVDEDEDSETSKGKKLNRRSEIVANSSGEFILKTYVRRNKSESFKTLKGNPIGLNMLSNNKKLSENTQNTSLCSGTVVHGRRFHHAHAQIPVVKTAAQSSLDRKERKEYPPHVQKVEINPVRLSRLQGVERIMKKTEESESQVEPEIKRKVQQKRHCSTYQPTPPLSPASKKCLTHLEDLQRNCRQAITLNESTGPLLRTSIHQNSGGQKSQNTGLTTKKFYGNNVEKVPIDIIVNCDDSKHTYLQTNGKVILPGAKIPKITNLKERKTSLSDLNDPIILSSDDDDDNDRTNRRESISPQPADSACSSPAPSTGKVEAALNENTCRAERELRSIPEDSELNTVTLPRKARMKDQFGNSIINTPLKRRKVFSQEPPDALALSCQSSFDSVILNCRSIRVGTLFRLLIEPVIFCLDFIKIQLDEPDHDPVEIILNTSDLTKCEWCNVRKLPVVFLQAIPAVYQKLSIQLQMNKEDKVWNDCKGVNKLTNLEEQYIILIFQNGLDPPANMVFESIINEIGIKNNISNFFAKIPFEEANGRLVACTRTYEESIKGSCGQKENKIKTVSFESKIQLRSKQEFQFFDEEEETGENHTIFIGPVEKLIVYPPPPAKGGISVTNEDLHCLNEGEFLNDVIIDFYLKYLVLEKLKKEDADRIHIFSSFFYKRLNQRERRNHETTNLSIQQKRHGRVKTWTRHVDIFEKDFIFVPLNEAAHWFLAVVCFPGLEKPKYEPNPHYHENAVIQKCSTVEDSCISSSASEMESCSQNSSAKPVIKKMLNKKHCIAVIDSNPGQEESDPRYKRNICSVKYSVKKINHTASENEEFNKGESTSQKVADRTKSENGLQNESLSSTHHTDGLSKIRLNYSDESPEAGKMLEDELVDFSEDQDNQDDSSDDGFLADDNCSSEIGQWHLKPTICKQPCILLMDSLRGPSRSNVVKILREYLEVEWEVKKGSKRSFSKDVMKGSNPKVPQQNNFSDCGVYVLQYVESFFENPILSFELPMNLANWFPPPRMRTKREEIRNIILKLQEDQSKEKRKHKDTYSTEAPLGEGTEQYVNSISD
Type of assay: functional.

The target of assay [4] is T4, Sentrin-specific protease 8 (Homo sapiens, UniProt Q96LD8).
T4 sequence (Q96LD8 whole entry): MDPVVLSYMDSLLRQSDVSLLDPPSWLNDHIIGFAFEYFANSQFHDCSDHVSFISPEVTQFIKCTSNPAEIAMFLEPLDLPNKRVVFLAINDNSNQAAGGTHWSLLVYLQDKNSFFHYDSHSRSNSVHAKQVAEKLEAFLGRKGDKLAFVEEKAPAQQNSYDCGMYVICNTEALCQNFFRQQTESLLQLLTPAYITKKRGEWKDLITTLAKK
Type of assay: functional.

A short description of assay [5]: microbe, parasite or virus in culture. The following applies: Mycobacterium tuberculosis. The assay is classed as functional.
Assay [6] in a line: Shn3 3'UTR reporter inhibitors, dose response, cell-based, Clone20 osteoblasts, firefly luciferase, cherry-picked (AID 624132).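 Also: firefly luciferase luminescence from reporter carrying the Shn3 3'UTR in osteoblasts.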 Type of assay: functional.
The nature of assay [7]: control 3'UTR Renilla luciferase suppression, dose response, counter-screen for Shn3 inhibitor project, cell-based, Clone20-Shn3RL, cherry-picked (AID 624133). Type of assay: functional. (A counterscreen serves to expose hits that act by an unwanted route or on another target.)
The nature of assay [8]: Luminescence Cell-Based Dose Retest to Confirm Inhibitors of Cancer Stem Cells. [Related pubchem assays (depositor defined):AID2717, AID2721]. The assay is classed as functional. The following applies: Homo sapiens.
Assay [9] is described as follows: HepG2 cell cytotoxicity, dose response, cytotoxicity control for Shn3 inhibitor project, CellTiter-Glo, cherry-picked (AID 624134). Type of assay: functional, cell-based. Background: Cellular ATP, detected with luciferase, serves as a proxy for viable cell number.
A short description of assay [10]: growth suppression of beta-catenin-knockout colon cells, dose response, cell-based, HCT116, human colon tumor (AID 1045).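 Also: HCT116 colon tumor cells with beta catenin knocked out; cells exposed to compound for 60 hours.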 Type of assay: functional.
Assay [11] in a line: growth suppression of PTEN-null colon cells, dose response, cell-based, HCT116 PTEN knockout (AID 1047).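 Also: HCT116 colon tumor cells with PTEN knocked out; cells exposed to compound for 60 hours before readout; potency for loss of cell viability measured by luminescence.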 Type of assay: functional.
The nature of assay [12]: A Cell Based Secondary Assay To Explore Cytotoxicity of Compounds that Sensitize Mycobacterium Tuberculosis to Beta-Lactam Antibiotics. The assay is classed as functional.
Assay [13] can be described thus: inhibitors of clade B AD8 Env fusion, dose response, cell-based, cherry-pick (AID 652062).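 Also: luciferase signal from cell-cell fusion driven by HIV-1 clade B AD8 Env; potency is for inhibitors of fusion seen as a drop in luminescence.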 Type of assay: functional.
Assay [14] can be described thus: inhibitors of HIV Env-driven cell fusion, dose response, cherry-pick (AID 652057). Type of assay: functional, cell-based.
The nature of assay [15]: off-target signal loss in HeLa-CEM21 co-culture – HeLa F-luc CTL cells, cherry-picked, counter-screen for HIV-1 Env fusion inhibitor project, dose response (AID 652040).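 Also: potency for signal decrease marking cytotoxic or nonspecific inhibition.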 The assay is classed as functional, cell-based.
Assay [16] in a line: ZM109 Env clade C HIV-1 fusion inhibitors, dose response, HeLa effector, CEM target cells, luciferase, cherry-pick (AID 652058). The assay is classed as functional, cell-based.
In assay [17] the target is T4, Sentrin-specific protease 8. Type of assay: functional. This is another data set of the same source.
Assay [18] deals with FAD-linked sulfhydryl oxidase ALR (Homo sapiens, UniProt P55789). The assay is described as follows: inhibitors of human ALR sulfhydryl oxidase, dose response, biochemical, H2O2 detection, luminescence, cherry-pick (AID 493248).
Assay [19] addresses T4, Sentrin-specific protease 8. Type of assay: functional. This is another data set of the same source.
Assay [20] in a line: NIH:OVCAR-3 ovarian cancer cell cytotoxicity, dose response, PAX8 inhibitor project, plate reader, dry powder samples (AID 743044). Type of assay: functional, cell-based.
Assay [21] addresses Paired box protein Pax-8 (Homo sapiens, UniProt Q06710). In words: inhibitors of PAX8-driven TPO luciferase reporter, dose response, RMG-I cells, cherry-pick (AID 687027).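 Also: luciferase reporter driven by Pax8 target thyroperoxidase promoter measured by SteadyGlo luminescence.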 The assay is classed as functional, cell-based.
Assay [22] can be described thus: cytotoxicity in OVCAR8 ovarian cancer cells, dose response, PAX8 project, cell-based, plate reader, dry powder samples (AID 743197). The following applies: OVCAR-8. The assay is classed as functional.

The structures appear in SMILES notation. Active and inactive are the calls of the source. Some results are limits rather than exact numbers.

Chain of Paired box protein Pax-8 (Q06710 whole entry): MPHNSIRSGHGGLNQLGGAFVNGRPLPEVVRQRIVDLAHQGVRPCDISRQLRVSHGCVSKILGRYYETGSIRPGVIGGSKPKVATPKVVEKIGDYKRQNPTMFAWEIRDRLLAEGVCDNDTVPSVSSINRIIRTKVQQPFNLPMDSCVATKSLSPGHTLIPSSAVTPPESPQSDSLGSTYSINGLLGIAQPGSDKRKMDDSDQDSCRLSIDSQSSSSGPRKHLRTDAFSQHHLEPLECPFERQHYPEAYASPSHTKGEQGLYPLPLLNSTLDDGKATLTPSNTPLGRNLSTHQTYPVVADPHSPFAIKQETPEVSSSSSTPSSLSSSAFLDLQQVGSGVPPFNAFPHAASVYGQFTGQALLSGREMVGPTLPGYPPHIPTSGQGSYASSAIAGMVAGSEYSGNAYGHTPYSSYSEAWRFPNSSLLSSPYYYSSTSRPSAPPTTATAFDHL
Chain of FAD-linked sulfhydryl oxidase ALR (P55789 whole entry): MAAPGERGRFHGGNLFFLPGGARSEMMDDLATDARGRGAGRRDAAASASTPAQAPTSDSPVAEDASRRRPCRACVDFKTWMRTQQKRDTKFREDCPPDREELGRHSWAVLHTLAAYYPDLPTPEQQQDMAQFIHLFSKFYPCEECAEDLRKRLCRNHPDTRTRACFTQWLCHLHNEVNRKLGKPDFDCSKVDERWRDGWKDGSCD

What is called IC50 is the point on the concentration scale where inhibition reaches its midpoint. For the compound `COC(=O)c1ccc(-c2ccc(F)cc2)nc1C`, the IC50 in [1] is 8.25 µM (active); in [2] it was 13.2 µM (active); in assay [3], 31.9 µM (active); in [4] it was 64.9 µM (active).

The AC50 is the concentration giving half of the maximal activity seen. With `CCOc1cc2c(cc1OCC)-n1cccc1C(c1ccc(C(C)C)cc1)NC2` (centres undefined), the CC50 in assay [5] was > 40 µM (active). For the same compound, the AC50 in assay [6] is 7.22 µM (active); in assay [7] it was 4.99 µM (active); in [8], 11.4 µM (active); in assay [9] it was 67.7 µM (active).

One may read the EC50 as the concentration giving half of the maximal effect. For the compound `Cc1ccc(C(=O)c2sc3c(c2N)c(=O)[nH]c(=O)n3CCc2ccccc2)cc1`, the 50% effective concentration (EC50) in [10] is 9.5 µM (active); in [11], 10.7 µM (active). The CC50 in assay [12] is 25.1 µM (active).

With `CCOC(=O)C1(Cc2ccc(Cl)cc2)CCN(C(C)Cc2ccc(O)c(OC)c2)CC1` (centres undefined), the AC50 is 1.33 µM (active) in assay [6], 2.65 µM (active) in [7] and 17.6 µM (active) in assay [9].

As to `COc1ccccc1N1CCN(S(=O)(=O)c2ccc3[nH]c(-c4ccccc4)nc3c2)CC1`, the CC50 in assay [12] was > 40 µM (active).

With `CN(c1ccccc1)S(=O)(=O)c1ccc(Cl)c(C(=O)Nc2nc3ccccc3[nH]2)c1`, the AC50 was 5.66 µM (active) in [13], 3.18 µM (active) in assay [14], 5.75 µM (active) in assay [15] and 1.6 µM (active) in assay [16].

On to `COc1cccc(C(=O)NC(=S)Nc2ccc(N(C)C)cc2)c1`, for which the half-inhibitory concentration (IC50) in assay [1] is 6.14 µM (active); in assay [2], 10.7 µM (active); in assay [3] it was 16.1 µM (active); in assay [4], 21 µM (active).

`COc1ccc(/C=C2/CCCC(C(=O)C(F)(F)F)=C2O)cc1OC`: in assay [12], the CC50 was > 40 µM (active).

As for `CN(C)c1ccc(NC(=O)Oc2ccccc2)cc1`, the IC50 is 78.1 µM (inactive) in assay [17] and > 100 µM (inactive) in assay [19]. The AC50 in assay [18] is 1.88 µM (active).

Consider `O=C(Nc1ccc(S(=O)(=O)N2CCCCC2)cc1)C1CCCN(C(=O)c2ccc(Cl)cc2)C1` (centres undefined), for which the CC50 in assay [12] is > 40 µM (active).

For the compound `COc1ccc(C(C(=O)NC(C)(C)C)N(CCC(C)C)C(=O)CCC(=O)Nc2cc(C)on2)cc1` (centres undefined), the concentration at half-maximal activity (AC50) in assay [13] was 22.8 µM (active); in [14] it was 7.02 µM (active); in [15] it was 16.6 µM (active); in assay [16], 18.1 µM (active).

For the compound `CC(C)(C)NCCCOc1ccc(Cl)cc1C(C)(C)C`, the CC50 in assay [12] is 39.3 µM (active).

Turning to `COC(=O)[C@@]1(C)[C@H]2C(=O)N(Cc3ccccc3)C(=O)[C@H]2[C@H]2CN=C(SCc3ccc(C#N)cc3)N21`, the AC50 in [13] was 0.609 µM (active); in [14], 0.566 µM (active); in assay [15], 1.09 µM (active); in [16] it was 0.785 µM (active).

On to `CCOc1ccccc1Nc1cc(C)nc2ccccc12`, for which the half-maximal activity concentration (AC50) in assay [6] is 8.14 µM (active); in assay [7], 5.31 µM (active); in assay [9], 48.6 µM (active).

As for `C[C@H](CO)N1C[C@H](C)[C@H](CN(C)C(=O)c2ccncc2)OCc2ccccc2-c2c(n(C)c3ccccc23)C1=O`, the AC50 is 33.1 µM (active) in assay [13], 9.94 µM (active) in assay [14] and 4.23 µM (active) in assay [16].

`O=C(Nc1ccc(F)cc1)N1CC(=O)N2[C@@H](CO)[C@@H](c3ccc(C#Cc4ccc(F)cc4)cc3)[C@@H]2C1`: the AC50 was 16.2 µM (active) in assay [20], 10.4 µM (active) in assay [21] and > 70 µM (inactive) in assay [22].

As for `C[C@H]1CN([C@@H](C)CO)C(=O)c2c(c3ccccc3n2C)-c2ccccc2CO[C@@H]1CN(C)S(=O)(=O)c1ccsc1`, the concentration at half-maximal activity (AC50) in assay [20] was 51.1 µM (active); in assay [21], 3.6 µM (active).
